± gives the expanded uncertainty stated by the source.
Assay: activity coefficient (dimensionless); of the first substance listed, at infinite dilution; xn = mol fraction of the nth substance listed
Details: Liquid, Chromatography, x1 = 0

activity coefficient (308.15 K) | activity coefficient (318.15 K) | activity coefficient (328.15 K) | SMILES
8.1 ± 0.6 | 7.7 ± 0.5 | 6.7 ± 0.5 | CCCCC [pentane] + CCCC[P+](C)(CCCC)CCCC.COS(=O)(=O)[O-]
10.1 ± 0.7 | 10 ± 0.7 | 8.9 ± 0.6 | C=CCCCCCC [oct-1-ene] + CCCC[P+](C)(CCCC)CCCC.COS(=O)(=O)[O-]
17.3 ± 1.2 | 15.9 ± 1.1 | 13.8 ± 0.9 | CCCCCCCC [octane] + CCCC[P+](C)(CCCC)CCCC.COS(=O)(=O)[O-]
13.4 ± 0.9 | 12.2 ± 0.8 | 10.7 ± 0.7 | CCCCCCC [heptane] + CCCC[P+](C)(CCCC)CCCC.COS(=O)(=O)[O-]
10.3 ± 0.7 | 9.5 ± 0.7 | 8.4 ± 0.6 | CCCCCC [hexane] + CCCC[P+](C)(CCCC)CCCC.COS(=O)(=O)[O-]
6.4 ± 0.4 | 6 ± 0.4 | 5.3 ± 0.4 | C=CCCCC [hex-1-ene] + CCCC[P+](C)(CCCC)CCCC.COS(=O)(=O)[O-]
4.5 ± 0.3 | 4.3 ± 0.3 | 3.5 ± 0.2 | C1CCCC1 [cyclopentane] + CCCC[P+](C)(CCCC)CCCC.COS(=O)(=O)[O-]

Further lines, the molecule ahead of its results:

SMILES | activity coefficient (308.15 K) | activity coefficient (318.15 K) | activity coefficient (328.15 K)
C1CCCCCC1 [cycloheptane] + CCCC[P+](C)(CCCC)CCCC.COS(=O)(=O)[O-] | 6.5 ± 0.4 | 6.4 ± 0.4 | 5.3 ± 0.4
C1CCCCC1 [cyclohexane] + CCCC[P+](C)(CCCC)CCCC.COS(=O)(=O)[O-] | 5.5 ± 0.4 | 5.4 ± 0.4 | 4.6 ± 0.3
c1ccccc1 [benzene] + CCCC[P+](C)(CCCC)CCCC.COS(=O)(=O)[O-] | 1 ± 0.1 | 1 ± 0.1 | 0.9 ± 0.1
C=CCCCCC [1-heptene] + CCCC[P+](C)(CCCC)CCCC.COS(=O)(=O)[O-] | 8.2 ± 0.6 | 8 ± 0.5 | 7.1 ± 0.5
C#CCCCC [1-hexyne] + CCCC[P+](C)(CCCC)CCCC.COS(=O)(=O)[O-] | 1.8 ± 0.1 | 1.7 ± 0.1 | –

Source: the NIST ThermoML archive (doi:10.1016/j.fluid.2006.03.002)
